Experimental data: patent US11992473B2, “Compositions and methods for diagnosis and treatment of conditions related to the quality of aging and longevity” (Epitracker, Inc., priority 2018, dated 2024)

What was measured:
[1] = test system: Venular endothelial cells, peripheral blood mononuclear cells; test: BioMAP Diversity PLUS SAg system (T cell stimulation, Th1 type chronic inflammation); type: cell-based, human; conditions: for Significant log10 reduction compared to nontreated controls: T cell proliferation: SAg system
Method: (§1) This study examined activities of small molecules discovered in dolphin serum that had protective profiles against diseases of aging which can impact quality of life and longevity. These molecules were tested across 12 human primary cell-based systems as part of DiscoverX's BioMAP Diversity Plus program. These systems are designed to model complex human tissue and disease biology of the vasculature, skin, lung, and inflammatory tissues. Quantitative measurements of biomarker activities across this broad panel, along with comparative analysis of biological activities of known bioactive agents were used to predict and compare the efficacy and function of the four compounds. Compounds were tested at four concentrations (740 nm and 2.2, 6.7 and 20 μM).
(§2) BioMAP panels consist of human primary cell-based systems designed to model different aspects of the human body in an in vitro format. The 12 systems in the Diversity PLUS panel allow test agent characterization in an unbiased way across a broad set of systems modeling various human disease states. BioMAP systems are constructed with one or more primary cell types from healthy human donors, with stimuli (such as cytokines or growth factors) added to capture relevant signaling networks that naturally occur in human tissue or pathological conditions. Vascular biology is modeled in both a Th1 (3C system) and a Th2 (4H system) inflammatory environment, as well as in a Th1 inflammatory state specific to arterial smooth muscle cells (CASM3C system). Additional systems recapitulate aspects of the systemic immune response including monocyte-driven Th1 inflammation (LPS system) or T cell stimulation (SAg system), chronic Th1 inflammation driven by macrophage activation (lMphg system) and the T cell-dependent activation of B cells that occurs in germinal centers (BT system). The BE3C system (Th1) and the BF4T system (Th2) represent airway inflammation of the lung, while the MyoF system models myofibroblast-lung tissue remodeling. Lastly, skin biology is addressed in the KF3CT system modeling Th1 cutaneous inflammation and the HDF3CGF system modeling wound healing.
(§3) Each test agent generates a signature BioMAP profile that is created from the changes in protein biomarker readouts within individual system environments. Biomarker readouts (7-17 per system) are selected for therapeutic and biological relevance, are predictive for disease outcomes or specific drug effects and are validated using agents with known mechanism of action (MoA). Each readout is measured quantitatively by immune-based methods that detect protein (e.g., ELISA) or functional assays that measure proliferation and viability. BioMAP readouts are diverse and include cell surface receptors, cytokines, chemokines, matrix molecules and enzymes. In total, the Diversity PLUS panel contains 148 biomarker readouts that capture biological changes that occur within the physiological context of the particular BioMAP system. Specific BioMAP activities have been correlated to in vivo biology, and multiparameter BioMAP profiles have been used to distinguish compounds based on MoA and target selectivity across diverse physiological systems.
(§4) The Diversity PLUS panel allows test agent characterization in an unbiased way across a broad set of systems modeling various human disease states. These systems are designed to model complex human tissue and disease biology of the vasculature, skin, lung, and inflammatory tissues. Quantitative measurements of 148 biomarker activities across this broad panel, along with comparative analysis of biological activities from known bioactive agents, were used to predict and compare the efficacy and function of each selected compound at four concentrations (740 nm and 2.2, 6.7 and 20 μM). […]

[2] = test system: Peripheral blood mononuclear cells, B cells; test: BioMAP Diversity PLUS BT system (T cell dependent B cell activation); type: cell-based, human; conditions: BT system
Method: as §1, §2
(§5) Each test agent generates a signature BioMAP profile that is created from the changes in protein biomarker readouts within individual system environments. Biomarker readouts (7-17 per system) are selected for therapeutic and biological relevance, are predictive for disease outcomes or specific drug effects and are validated using agents with known mechanism of action (MoA). Each readout is measured quantitatively by immune-based methods that detect protein (e.g., ELISA) or functional assays that measure proliferation and viability. BioMAP readouts are diverse and include cell surface receptors, cytokines, chemokines, matrix molecules and enzymes.
(§6) The Diversity PLUS panel allows test agent characterization in an unbiased way across a broad set of systems modeling various human disease states. These systems are designed to model complex human tissue and disease biology of the vasculature, skin, lung, and inflammatory tissues.
(§7) BioMAP systems are constructed with one or more primary cell types from healthy human donors, with stimuli (such as cytokines or growth factors) added to capture relevant signaling networks that naturally occur in human tissue or pathological conditions. Vascular biology is modeled in both a Th1 (3C system) and a Th2 (4H system) inflammatory environment, as well as in a Th1 inflammatory state specific to arterial smooth muscle cells (CASM3C system). Additional systems recapitulate aspects of the systemic immune response including monocyte-driven Th1 inflammation (LPS system) or T cell stimulation (SAg system), chronic Th1 inflammation driven by macrophage activation (lMphg system) and the T cell-dependent activation of B cells that occurs in germinal centers (BT system).

[3] = test system: Dermal fibroblasts; test: BioMAP Diversity PLUS HDF3CGF system (wound healing and matrix/tissue remodeling); type: cell-based, human
Method: as §1, §2, §5, §6, §7

[4] = white powder; room temperature; cited from earlier work
[5] = test system: Bronchial epithelial cells, dermal fibroblasts; test: BioMAP Diversity PLUS BF4T system (Th2 type lung inflammation); type: cell-based, human
Method: as §1, §2, §3, §4

[6] = test system: Coronary artery smooth muscle cells; test: BioMAP Diversity PLUS CASM3C system (Th1 type vascular inflammation); type: cell-based, human
Method: as §1, §2, §5, §6, §7

[7] = test system: Venular endothelial cells, peripheral blood mononuclear cells; test: BioMAP Diversity PLUS LPS system (Th1 type chronic inflammation, monocyte activation); type: cell-based, human; conditions: for Significant log10 reduction compared to nontreated controls: Secreted prostaglandin E2 (PGE2): LPS system
Method: as §1, §2, §5, §6, §7

## N[C@@H](CC(O)C(=O)O)C(=O)O (some centres unmarked) [4-hydroxyglutamate]
[1]; 0.7 μM
  Significant log10 reduction compared to nontreated controls: T cell proliferation: −0.08 log10
[1]; 2.2 μM
  Significant log10 reduction compared to nontreated controls: T cell proliferation: −0.09 log10
[1]; 6.7 μM
  Significant log10 reduction compared to nontreated controls: T cell proliferation: −0.18 log10
[1]; human cell system mimicking T-cell driven chronic inflammation and autoimmune diseases, concentrations ranging from 740 nm to 6.7 μM (FIG. 2)
  T cell proliferation: decreased
[2]; 0.7 μM
  Significant log10 reduction compared to nontreated controls: Secreted interleukin 17F (IL-17F): −0.16 log10
[3]; human cell system mimicking wound healing, remodeling, fibrosis and chronic inflammation (FIG. 7)
  decorin: inhibitory activity
[4]
  stability of the pure or purified metabolite: stable at room temperature

## CCCCCCC=CCCCCCCCCC(=O)O [10-heptadecanoate]
[5]; 2.2 μM
  Significant log10 reduction compared to nontreated controls: Eotaxin 3 (CCL26): −0.10 log10
[5]; 6.7 μM
  Significant log10 reduction compared to nontreated controls: Eotaxin 3 (CCL26): −0.13 log10
[5]; 20.0 μM
  Significant log10 reduction compared to nontreated controls: Eotaxin 3 (CCL26): −0.31 log10
[6]; CASM3C system, 2.2 μM
  Significant log10 reduction compared to nontreated controls: Serum amyloid A: −0.13 log10
[3]; HDF3CGF system, 6.7 μM
  Significant log10 reduction compared to nontreated controls: Macrophage colony-stimulating factor (M-CSF): −0.1 log10
  Significant log10 reduction compared to nontreated controls: Vascular cell adhesion molecule 1 (VCAM-1): −0.17 log10

## O=C(O)c1cc(O)c2cccc(O)c2n1 [Xanthurenate]
[7]; 6.7 μM
  Significant log10 reduction compared to nontreated controls: Secreted prostaglandin E2 (PGE2): −0.16 log10
[7]; 20.0 μM
  Significant log10 reduction compared to nontreated controls: Secreted prostaglandin E2 (PGE2): −0.09 log10
[7]; human cell system mimicking T-cell and monocyte driven chronic inflammation and cardiovascular diseases (FIG. 4)
  secretion of prostaglandin E2 (PGE2): lowered
[2]; 20.0 μM
  Significant log10 reduction compared to nontreated controls: Secreted interleukin 6 (IL-6): −0.13 log10
  Significant log10 reduction compared to nontreated controls: Secreted tumor necrosis factor alpha (TNFα): −0.19 log10
[6]; human cell system mimicking cardiovascular inflammation (FIG. 6)
  IL-6: lowered
[3]; human cell system mimicking wound healing, remodeling, fibrosis and chronic inflammation (FIG. 8)
  interleukin 8 (IL-8): inhibitory activity
